Tested on: wild type, pfpmtΔ+PfPMT and pfpmtΔ parasites
Test: TUNEL assay of drug-treated parasites
Type: cell-based, Plasmodium falciparum
Settings: 100 nM, 24 h
Procedure: The terminal deoxynucleotidyl transferase (TdT) dUTP nick end labeling (TUNEL) kit (Roche) was used to detect apoptotic cells following the manufacturer's instructions, with some modifications. Briefly, asynchronous cultures were grown to 10% parasitemia and 1 ml of the culture aliquots were washed twice with PBS and the cell count adjusted to 1×10^6 cells/ml. Fixation was achieved by resuspending the cells in 2% paraformaldehyde solution in PBS and incubated at room temperature for 1 h. The fixed cells were washed twice with PBS, resuspended in 100 μl of 0.1% Triton X-100 in 0.1% sodium citrate solution, and incubated for 2 min on ice. Cells were then washed twice in PBS and kept on ice until labeling. A positive control sample was prepared by incubating fixed and permeabilized cells with 3000 U/ml of DNase I for 15 min at room temperature followed by two washes with PBS. To label the cells, 50 μl of the TUNEL reaction mixture was added to the cell pellet and mixed gently. A negative control sample was included by treating fixed, permeabilized cells with the labeling solution in, the absence of the terminal TdT enzyme. The reaction mixtures were incubated in the dark at 37° C. for 1 h and then washed twice in PBS and resuspended in 250 μl PBS. Cells were analyzed by fluorescence microscopy at 525 nm wavelength with the FITC filter. […]

For `CCN(CC)CCCC(C)Nc1ccnc2cc(Cl)ccc12` (stereo not shown) [chloroquine], which “TUNEL staining of drug-treated parasites” value is on record?
The value was “positively stained with TUNEL”.

— patent US8153116B2, “Use of conditional plasmodium strains lacking an essential gene in malaria vaccination” (University of Connecticut, priority 2006, dated 2012)
